Measured values published in patent US20110065675A1, “AZO DYE RELATED SMALL MOLECULE MODULATORS OF PROTEIN-PROTEIN INTERACTIONS” (University of Miami, priority 2008, published 2011).
Read-outs that look alike come from different tables or passages of the source.

What was measured:
[1] = molecular target: T1, human CD40/CD154 (Homo sapiens, UniProt P29965); assay: Human CD40/CD154 binding inhibition assay (cell-free, plate-based)
T1 construct: CD154 (soluble human, FLAG-tagged, recombinant from Alexis Biochemicals; MW=18 kDa); purchased Alexis Biochemicals
T1 sequence (P29965 113-261 limits assumed): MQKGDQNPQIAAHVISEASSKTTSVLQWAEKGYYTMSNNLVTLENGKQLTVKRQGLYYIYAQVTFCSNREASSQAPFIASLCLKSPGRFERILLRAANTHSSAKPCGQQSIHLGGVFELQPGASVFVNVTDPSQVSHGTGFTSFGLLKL
Description: A 96-well plate-based cell-free in vitro binding inhibition assay, which is a modification of an assay described in U.S. Pat. No. 7,173,046, incorporated by reference in its entirety, has been developed and used for activity screening. Briefly, CD40 is coated at a preselected concentration, and binding of (FLAG-tagged) CD154 is measured by reacting with secondary antibody and using TMB liquid substrate system as a substrate for horseradish peroxidase for reading at 450 nm. The detailed procedure is as follows: Microtiter plates (Nunc F MaxiSorp) were coated with […] of CD40: Fc (human:Fc human, recombinant from Alexis Biochemicals; MW=54 kDa) diluted in PBS pH 7.2 at a preselected concentration of 0.3125 μg/mL. Plates were covered with plate sealer and stored overnight at 4° C. The liquid was removed from the plates and blotted dry. Plates were blocked by washing once with approx. 300 μL/well of Blocking Solution (PBS pH 7.2, 0.05% Tween-20, 1% BSA) and incubated with the same solution for 1 hour at room temperature (RT) or at 4° C. overnight. Coated plates were washed three times with Washing Solution (PBS pH 7.4, 0.05% Tween-20) and blotted dry. A preselected dilution of CD154 (soluble human, FLAG-tagged, recombinant from Alexis Biochemicals; MW=18 kDa) of 0.0087500875 μg/mL range was prepared in 100 mM HEPES, 0.005% BSA pH 7.2. Binding was carried out by adding 100 μL of this CD154 dilution/well and incubating at RT in the presence of test compounds (or blank as negative control). After incubation, the plates were washed with Washing Solution and blotted dry. Bound CD154 was detected with 200 μL/well of secondary antibody mAb ANTI-FLAG M2—Peroxidase Conjugate (anti-FLAG M2-peroxidase HRP conjugate; Sigma-Aldrich) diluted 1:40,000 in Washing Solution. After incubation, the plates were washed and blotted dry. 200 μL/well of the HR-Peroxidase substrate TMB (3,3′,5,5′-tetramethylbenzidine; Sigma-Aldrich) were added, and the plates were incubated for approximately 30 minutes in the dark. The reaction was stopped with 0.5 M H2SO4 and read at 450 nm. All conditions were tested in at least three independent experiments in duplicate or triplicate per plates. Data were normalized and fitted with standard log inhibitor vs. response models using GraphPad Prism 5 to establish median inhibitory ICso values.
A representative result using the monoclonal anti-human CD154 antibody (R&D Systems, monoclonal anti-human CD40 ligand/TNFSF5 antibody, MAB617; MW≈150 kDa used) as positive control is shown in FIG. 1.
Binding inhibition assays with this system provided consistent and well-reproducible results, as FIG. 1 (bottom), focusing on the concentration range of their activities, illustrates. […] The effect of DMSO, which was used as the diluting solvent for the non-water-soluble compounds and is a standard solvent in HTS assays, on the integrity of the assay has been examined. DMSO concentrations above 10% interfere with the binding assay, but concentrations below 3% have no effect. […] Because 5 or 10 mM stock solutions were used, all IC50 values below 250 μM can be considered as unaffected by DMSO.

[2] = molecular target: T2, mouse CD40/CD154 (mCD40:mCD154) (Mus musculus, UniProt P27548); assay: Murine CD40/CD154 binding inhibition assay; conditions: for IC50: cell-free binding, read-out: Mouse CD40/CD154 IC50
T2 construct: (FLAG-tagged) mCD154 (recombinant mouse CD40L, soluble, Alexis Biochemicals); purchased R&D Systems (mCD40/Fc); Alexis Biochemicals (mCD154)
T2 sequence (P27548 112-260 limits assumed): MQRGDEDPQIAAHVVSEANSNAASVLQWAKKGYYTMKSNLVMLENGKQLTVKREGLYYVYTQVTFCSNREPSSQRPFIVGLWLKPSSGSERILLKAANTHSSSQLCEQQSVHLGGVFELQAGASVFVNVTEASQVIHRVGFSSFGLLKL
Description: Compounds of interest were also tested in a murine (mouse) model similar to the human one with murine CD40 and CD154 replacing the corresponding human proteins. This serves as additional confirmation of the in vitro inhibitory potential of these compounds, and it was considered important because mouse models are likely to be used as the first in vivo tests. […] The experimental setup used was similar to the one described above, but using mCD40 (recombinant mouse CD40/TNFRSF5/Fc Chimera, soluble, R&D Systems) and (FLAG-tagged) mCD154 (recombinant mouse CD40L, soluble, Alexis Biochemicals). This time, however, a higher concentration of CD154 ligand had to be employed to obtain adequate signals, and after a number of calibration tests, mCD40 coating at 0.3125 μg/mL with mCD154 (mCD40L) at 1.1212 μg/mL range was selected to be used to screen the inhibiting activity of various compounds.
The experiments confirmed that the murine anti-CD154 monoclonal antibody (Taconic, MR1) was active in this system at the expected concentration (˜1 nM range), the human antibody was not, and vice versa, the human mAb was active in the human system, but not in the mouse system. The mouse system provided a similar range of activity with some (up to approximately five-fold) changes in activities compared to that seen in the human system (FIG. 2) (Table 1).

[3] = molecular target: human TNF-R1/TNFα (Homo sapiens, UniProt P01375+P19438); assay: Specificity test: human TNF-R1/TNFα binding inhibition assay; conditions: for IC50: cell-free binding, read-out: Human TNFR1/TNFα IC50
From the text: A main concern for the therapeutic applicability of these compounds and of small molecule PPI inhibitors in general is related to their ability to achieve some acceptable degree of selectivity/specificity for the PPI of interest. To identify compounds that show acceptable specificity for the CD40/CD154 system, their ability to inhibit the TNF-R1/TNF-α PPI was investigated since this is particularly relevant as CD154 is part of the TNF superfamily. The experimental setup used was very similar to the one described in Example 1, but using plate-coated TNF-R1 and TNF-α as ligand (with a corresponding anti-TNF-α mAb as positive control). The concentration of TNF-R1 and TNF-α used were 0.6 μg/mL and 0.02 μg/mL, respectively.

[4] = cell-free binding, read-out: Human CD40/CD154 IC50

human TNF-R1/TNFα, sequence (P01375 77-233 limits assumed): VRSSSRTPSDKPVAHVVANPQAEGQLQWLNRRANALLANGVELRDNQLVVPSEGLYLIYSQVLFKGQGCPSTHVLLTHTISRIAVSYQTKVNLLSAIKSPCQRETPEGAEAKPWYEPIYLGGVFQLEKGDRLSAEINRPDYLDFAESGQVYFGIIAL
human TNF-R1/TNFα, sequence (P19438 30-211 limits assumed): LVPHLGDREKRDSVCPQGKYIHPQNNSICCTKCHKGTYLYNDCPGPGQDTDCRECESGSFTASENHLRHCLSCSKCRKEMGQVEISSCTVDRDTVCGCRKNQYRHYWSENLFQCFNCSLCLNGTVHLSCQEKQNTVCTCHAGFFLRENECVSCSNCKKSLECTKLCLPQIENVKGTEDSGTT

## Cc1ccc(C(=O)Nc2ccc(S(=O)(=O)O)c3cc(S(=O)(=O)O)cc(S(=O)(=O)O)c23)cc1NC(=O)c1cccc(NC(=O)Nc2cccc(C(=O)Nc3cc(C(=O)Nc4ccc(S(=O)(=O)O)c5cc(S(=O)(=O)O)cc(S(=O)(=O)O)c45)ccc3C)c2)c1 [Suramin, reference compound]
[1]; [4]
  IC50: 14.6 µM
[1]; cell-free binding, read-out: Human CD40/CD154 IC50 (ug/mL) (converted)
  IC50: 14 µM
[2]
  IC50: 4.5 µM
[3]
  IC50: 486 µM

## O=C([O-])C1=NN(c2ccc(S(=O)(=O)[O-])cc2)C(=O)C1N=Nc1ccc(S(=O)(=O)[O-])cc1.[Na+].[Na+].[Na+] (stereo not drawn) [Tartrazine (FD&C yellow 5), Tartrazine, reference compound]
[1]
  Activity in the human CD40/CD154 binding assay: inactive
[1]; cell-free binding
  Human CD40/CD154 IC50: >2000 mg/L
[1]; [4]
  IC50: > 2000 µM
[1]; log of IC50, cell-free binding
  Human CD40/CD154 log IC50: >−3.0
[2]
  IC50: > 2000 µM
[2]; log of IC50, cell-free binding
  Mouse CD40/CD154 log IC50: >−3.0
[3]
  IC50: > 2000 µM
[3]; log of IC50, cell-free binding
  Human TNFR1/TNFα log IC50: >−3.0
